Source: ChEMBL document CHEMBL1138676, “Liver-selective glucocorticoid antagonists: a novel treatment for type 2 diabetes” (J Med Chem, 2004)

Tests used:
[1] = target: Glucocorticoid receptor (Rattus norvegicus) (UniProt P06536); assay: Inhibition of glucocorticoid receptor mediated tyrosine aminotransferase activity; design: concentration or dose not given beside the values; settings: concentration not given here
[2] = Inhibitory activity of the Compound against rat lymphocytes

Sequence of Glucocorticoid receptor (Rattus norvegicus) (P06536 whole entry, looked up): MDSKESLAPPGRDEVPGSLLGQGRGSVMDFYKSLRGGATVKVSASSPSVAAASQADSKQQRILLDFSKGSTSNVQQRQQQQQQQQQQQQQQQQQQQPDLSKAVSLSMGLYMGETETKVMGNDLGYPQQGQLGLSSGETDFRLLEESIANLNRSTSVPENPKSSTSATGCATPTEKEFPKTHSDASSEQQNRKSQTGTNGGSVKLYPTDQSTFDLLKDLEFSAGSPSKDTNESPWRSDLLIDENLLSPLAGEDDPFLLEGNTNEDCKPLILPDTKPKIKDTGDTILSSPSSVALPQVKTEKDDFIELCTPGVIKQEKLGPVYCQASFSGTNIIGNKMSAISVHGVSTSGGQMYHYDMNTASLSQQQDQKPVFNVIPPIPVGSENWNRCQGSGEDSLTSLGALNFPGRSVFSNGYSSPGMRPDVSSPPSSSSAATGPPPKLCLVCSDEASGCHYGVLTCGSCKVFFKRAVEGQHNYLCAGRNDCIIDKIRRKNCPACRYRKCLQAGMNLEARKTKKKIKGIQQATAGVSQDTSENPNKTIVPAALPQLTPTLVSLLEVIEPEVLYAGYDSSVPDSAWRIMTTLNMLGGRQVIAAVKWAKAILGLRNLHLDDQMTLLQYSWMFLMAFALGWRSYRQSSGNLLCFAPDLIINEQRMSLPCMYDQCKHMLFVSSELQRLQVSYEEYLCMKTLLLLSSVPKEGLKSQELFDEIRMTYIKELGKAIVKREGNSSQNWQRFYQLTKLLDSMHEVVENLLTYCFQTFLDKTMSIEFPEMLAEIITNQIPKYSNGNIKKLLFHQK

inhibition [1] [%]	SMILES	Inhibition [2] [%]
60	C#C[C@]1(O)CC[C@H]2[C@@H]3CCC4=CC(=O)CCC4=C3[C@@H](c3ccc(N(C)CCOCCO[C@H]4CC[C@@]5(C)[C@@H](C4)C[C@@H](O)[C@@H]4[C@@H]5C[C@H](O)[C@]5(C)[C@@H]([C@H](C)CCC(=O)O)CC[C@@H]45)cc3)C[C@@]21C	
11	C#C[C@]1(O)CC[C@H]2[C@@H]3CCC4=CC(=O)CCC4=C3[C@@H](c3ccc(N(C)CCCC(=O)N(C)C4CC[C@@]5(C)[C@@H](C4)C[C@@H](O)[C@@H]4[C@@H]5C[C@H](O)[C@]5(C)[C@@H]([C@H](C)CCC(=O)O)CC[C@@H]45)cc3)C[C@@]21C (some centres undefined)	
	C#C[C@]1(O)CC[C@H]2[C@@H]3CCC4=CC(=O)CCC4=C3[C@@H](c3ccc(N(C)CCNC(=O)OC4CC[C@@]5(C)[C@@H](C4)C[C@@H](O)[C@@H]4[C@@H]5C[C@H](O)[C@]5(C)[C@@H]([C@H](C)CCC(=O)O)CC[C@@H]45)cc3)C[C@@]21C (some centres undefined)	14
64	C#C[C@]1(O)CC[C@H]2[C@@H]3CCC4=CC(=O)CCC4=C3[C@@H](c3ccc(N(C)CCCOC4CC[C@@]5(C)[C@@H](C4)C[C@@H](O)[C@@H]4[C@@H]5C[C@H](O)[C@]5(C)[C@@H]([C@H](C)CCC(=O)O)CC[C@@H]45)cc3)C[C@@]21C (some centres undefined)	
